Assay results taken from patent US20060046976A1, “Method for increasing the bone mineral density and bone micro-architecture or connectivity of a mammal using N-acylated glucosamines” (priority 2004, published 2006).

Test system: SCW-arthritis rats
Assay: Two-dimensional subchondral bone analysis (structure, connectivity/strut analysis, plate thickness) of proximal tibia, SCW-arthritis rats
Type: in vivo, Lewis type rats
Conditions: for 2D-Tb.N Mean ± SEM / 2D-Tb.Th % loss / 2D-Tb.Th Mean ± SEM / End Points % loss / End Points Mean ± SEM / Multiple points % loss / Multiple points Mean ± SEM / Node-node struts % loss / Node-node struts Mean ± SEM / Total Strut length % loss / Total Strut length Mean ± SEM / 2D-BV/TV % loss / 2D-BV/TV Mean ± SEM / 2D-Tb.N % loss: SCW + 200 mg

With `CCCC(=O)N[C@H]1C(O)O[C@H](CO)[C@@H](O)[C@@H]1O` (stereo partly drawn) [GlcNBu, N-butyryl-D-glucosamine] the “2D-Tb.N Mean ± SEM” value (Anterior/lateral) was 6.0 ± 0.7 /mm, the 2D-Tb.Th % loss (Anterior/lateral) was 30% and the “2D-Tb.Th Mean ± SEM” value (Anterior/lateral) was 39.7 ± 2.9 um. The “End Points % loss” value (Anterior/lateral) was −120%, the “End Points Mean ± SEM” value (Anterior/lateral) was 34.1 ± 4.1 1/mm2 and the “Multiple points % loss” value (Anterior/lateral) was 37%. For the same compound, the “Multiple points Mean ± SEM” value (Anterior/lateral) was 10.3 ± 2.7 1/mm2, the “Node-node struts % loss” value (Anterior/lateral) was 64% and the “Node-node struts Mean ± SEM” value (Anterior/lateral) was 1.2 ± 0.4 mm/mm2. For the same compound, the “Total Strut length % loss” value (Anterior/lateral) was 28%, the “Total Strut length Mean ± SEM” value (Anterior/lateral) was 5.4 ± 0.7 mm/mm2 and the 2D-BV/TV % loss (Anterior/medial) was 31%. For the same compound, the “2D-BV/TV Mean ± SEM” value (Anterior/medial) was 27.8 ± 2.7%, the 2D-Tb.N % loss (Anterior/medial) was 10% and the “2D-Tb.N Mean ± SEM” value (Anterior/medial) was 5.7 ± 0.6 /mm. The 2D-Tb.Th % loss (Anterior/medial) was 28%, the “2D-Tb.Th Mean ± SEM” value (Anterior/medial) was 49.5 ± 4.3 um and the “End Points % loss” value (Anterior/medial) was −99%. For the same compound, the “End Points Mean ± SEM” value (Anterior/medial) was 26.7 ± 5.7 1/mm2, the “Multiple points % loss” value (Anterior/medial) was 32% and the “Multiple points Mean ± SEM” value (Anterior/medial) was 10.7 ± 1.7 1/mm2. The “Node-node struts % loss” value (Anterior/medial) was 45%, the “Node-node struts Mean ± SEM” value (Anterior/medial) was 1.3 ± 0.3 mm/mm2 and the “Total Strut length % loss” value (Anterior/medial) was 15%. For the same compound, the “Total Strut length Mean ± SEM” value (Anterior/medial) was 5.1 ± 0.5 mm/mm2, the 2D-BV/TV % loss (Middle section/lateral) was 15% and the “2D-BV/TV Mean ± SEM” value (Middle section/lateral) was 24.1 ± 2.1%. The 2D-Tb.N % loss (Middle section/lateral) was 0%, the “2D-Tb.N Mean ± SEM” value (Middle section/lateral) was 4.7 ± 0.3 /mm and the 2D-Tb.Th % loss (Middle section/lateral) was 16%. The “2D-Tb.Th Mean ± SEM” value (Middle section/lateral) was 51.3 ± 2.8 um, the “End Points % loss” value (Middle section/lateral) was −92% and the “End Points Mean ± SEM” value (Middle section/lateral) was 19.8 ± 1.7 1/mm2. The “Multiple points % loss” value (Middle section/lateral) was 2%, the “Multiple points Mean ± SEM” value (Middle section/lateral) was 9.5 ± 1.9 1/mm2 and the “Node-node struts % loss” value (Middle section/lateral) was 15%. For the same compound, the “Node-node struts Mean ± SEM” value (Middle section/lateral) was 0.9 ± 0.2 mm/mm2, the “Total Strut length % loss” value (Middle section/lateral) was 9% and the “Total Strut length Mean ± SEM” value (Middle section/lateral) was 4.2 ± 0.2 mm/mm2. The 2D-BV/TV % loss (Middle section/medial) was 17%, the “2D-BV/TV Mean ± SEM” value (Middle section/medial) was 35.1 ± 4.1% and the 2D-Tb.N % loss (Middle section/medial) was −9%. The “2D-Tb.N Mean ± SEM” value (Middle section/medial) was 5.1 ± 0.2 /mm, the 2D-Tb.Th % loss (Middle section/medial) was 24% and the “2D-Tb.Th Mean ± SEM” value (Middle section/medial) was 68.5 ± 6.3 um. The “End Points % loss” value (Middle section/medial) was −145%, the “End Points Mean ± SEM” value (Middle section/medial) was 12.2 ± 2.1 1/mm2 and the “Multiple points % loss” value (Middle section/medial) was −11%. The “Multiple points Mean ± SEM” value (Middle section/medial) was 12.6 ± 1.8 1/mm2, the “Node-node struts % loss” value (Middle section/medial) was 4% and the “Node-node struts Mean ± SEM” value (Middle section/medial) was 2.0 ± 0.3 mm/mm2. For the same compound, the “Total Strut length % loss” value (Middle section/medial) was −2%, the “Total Strut length Mean ± SEM” value (Middle section/medial) was 4.9 ± 0.3 mm/mm2 and the 2D-BV/TV % loss (Posterior/lateral) was 27%. The “2D-BV/TV Mean ± SEM” value (Posterior/lateral) was 23.2 ± 1.0%, the 2D-Tb.N % loss (Posterior/lateral) was 13% and the “2D-Tb.N Mean ± SEM” value (Posterior/lateral) was 4.5 ± 0.2 /mm. The 2D-Tb.Th % loss (Posterior/lateral) was 22%, the “2D-Tb.Th Mean ± SEM” value (Posterior/lateral) was 49.8 ± 1.7 um and the “End Points % loss” value (Posterior/lateral) was −114%. The “End Points Mean ± SEM” value (Posterior/lateral) was 21.4 ± 1.7 1/mm2, the “Multiple points % loss” value (Posterior/lateral) was 59% and the “Multiple points Mean ± SEM” value (Posterior/lateral) was 7.1 ± 0.7 1/mm2. The “Node-node struts % loss” value (Posterior/lateral) was 46%, the “Node-node struts Mean ± SEM” value (Posterior/lateral) was 0.7 ± 0.1 mm/mm2 and the “Total Strut length % loss” value (Posterior/lateral) was 16%. For the same compound, the “Total Strut length Mean ± SEM” value (Posterior/lateral) was 4.0 ± 0.2 mm/mm2, the 2D-BV/TV % loss (Posterior/medial) was 21% and the “2D-BV/TV Mean ± SEM” value (Posterior/medial) was 35.9 ± 2.2%. For the same compound, the 2D-Tb.N % loss (Posterior/medial) was 5%, the “2D-Tb.N Mean ± SEM” value (Posterior/medial) was 6.1 ± 0.2 /mm and the 2D-Tb.Th % loss (Posterior/medial) was 21%. For the same compound, the “2D-Tb.Th Mean ± SEM” value (Posterior/medial) was 61.0 ± 3.6 um, the “End Points % loss” value (Posterior/medial) was −233% and the “End Points Mean ± SEM” value (Posterior/medial) was 17.1 ± 1.8 1/mm2. For the same compound, the “Multiple points % loss” value (Posterior/medial) was 29%, the “Multiple points Mean ± SEM” value (Posterior/medial) was 13.9 ± 1.8 1/mm2 and the “Node-node struts % loss” value (Posterior/medial) was 23%. For the same compound, the “Node-node struts Mean ± SEM” value (Posterior/medial) was 2.1 ± 0.3 mm/mm2, the “Total Strut length % loss” value (Posterior/medial) was 12% and the “Total Strut length Mean ± SEM” value (Posterior/medial) was 5.6 ± 0.3 mm/mm2. The “Subchondral Plate Thickness” value (SCW + GlcNBu High, lateral epiphysis of proximal tibia) was 0.11 ± 0.04 mm, the “Subchondral Plate Thickness” value (SCW + GlcNBu High, medial epiphysis of proximal tibia) was 0.07 ± 0.04 mm and the “Subchondral Plate Thickness” value (SCW + GlcNBu Low, lateral epiphysis of proximal tibia) was 0.10 ± 0.04 mm. For the same compound, the “Subchondral Plate Thickness” value (SCW + GlcNBu Low, medial epiphysis of proximal tibia) was 0.07 ± 0.03 mm, the “decrease of Subchondral Plate Thickness in arthritis” value (SCW-arthritis rats, GlcNBu treatment, especially high dose) was “minimized by GlcNBu treatment” and the bone connectivity (SCW-arthritis rats, low and high dose GlcNBu) was “dose-dependent increase in bone connectivity”. For the same compound, the “length of node-to-node struts, untreated arthritis-induced group to high dose group” value (medial side of the proximal epiphysis, high dose, p=0.034) was “significant increase”.
